The values below come from patent publication US5710169A, “Therapeutic heterocycles” (Zeneca Limited, priority 1994, dated 1998).

The assay deals with T1, NK1 receptor (Oryctolagus cuniculus, UniProt G1SEI7).
T1 construct: The left and right branches of the pulmonary artery are isolated from the rest of the lung tissue; from tissue; host or cells: pulmonary artery ring segments with intact endothelium, male New Zealand white rabbit (Oryctolagus cuniculus)
The assay can be described thus: Rabbit Pulmonary Artery: NK1 in vitro functional assay (Test C). The note with it: agonist ASMSP, read-out: pKB (-log molar KB) in Test C (converted). Format: cell-based, New Zealand white rabbit. As for the experimental part: Rabbit Pulmonary Artery: NK1 in vitro functional assay (Test C)
Male New Zealand white rabbits are killed by lethal injection (Nembutal, 60 mg/kg into a cannulated ear vein). Heparin, 0.0025 ml/kg of a 1000 U/ml solution, is injected into the ear vein prior to nembutal in order to decrease blood coagulation. The left and right branches of the pulmonary artery are isolated from the rest of the lung tissue and cut in half to provide four ring segments from each animal. […] Changes in tension are measured on a Grass polygraph via Grass FT-03 force transducers. […]
Potencies of the compounds are determined by calculating the apparent dissociation constants (KB) for each concentration tested using the standard equation: […]
where dose ratio=antilog[(agonist-log molar EC50 without compound)-(agonist-log molar EC50 with compound)]. The KB values are converted to the negative logarithms and expressed as -log molar KB (i.e. pKB). […] The EC50 values are converted to negative logarithms and expressed as -log molar EC50. Maximum relaxation responses to ASMSP are determined by expressing the maximum response to the agonist as a percentage of the relaxation caused by papaverine.

Counter-ions that a name gives are not always drawn.

T1 sequence (G1SEI7 1-407): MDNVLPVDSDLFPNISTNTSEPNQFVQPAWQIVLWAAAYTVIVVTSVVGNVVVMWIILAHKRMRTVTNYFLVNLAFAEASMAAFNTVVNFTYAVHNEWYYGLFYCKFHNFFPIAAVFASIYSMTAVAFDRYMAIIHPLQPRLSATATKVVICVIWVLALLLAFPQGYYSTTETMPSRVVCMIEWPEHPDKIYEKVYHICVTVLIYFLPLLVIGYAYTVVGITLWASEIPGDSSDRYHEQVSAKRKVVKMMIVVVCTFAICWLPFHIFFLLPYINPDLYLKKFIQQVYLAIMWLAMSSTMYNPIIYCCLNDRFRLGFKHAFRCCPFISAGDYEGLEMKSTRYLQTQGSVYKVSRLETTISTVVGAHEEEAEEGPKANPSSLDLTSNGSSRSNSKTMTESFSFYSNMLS

For `COc1ccccc1CC(=O)N(C)CC(c1ccc(Cl)c(Cl)c1)N1CCC(O)(c2ccccc2)CC1` (stereo not shown) [Example 2, N-[2-(3,4-Dichlorophenyl)-2-(4-hydroxy-4-phenylpiperidino)ethyl]-N-methyl-2-methoxyphenylacetamide hydrochloride salt], the Kb is 631 nM.
